Experimental data published in patent US6235707A, “Anticoagulant peptidyl-arginine aldehyde derivatives” (Gyogyszerkutato Intezet Kft., priority 1996, dated 2001).

Legend:
thrombin = thrombin (Homo sapiens, UniProt P00734); experiment: thrombin time (TT) plasma clotting test; type: biochemical; conditions: Table 3; twofold prolongation compared to control; read-out: A: anticoagulant IC50, TT
Experimental: (§1) Anticoagulant activity (i.e. inhibition of the proteolytic reactions in the process) is measured by anticoagulant tests, e.g. in the thrombin time (TT), activated partial thromboplastin time (APTT) and prothrombin time (PT) tests [E. J. W. Bovie et al., Mayo Clinic Laboratory Manual of Haemostasis; W. B. Saunders Co., Philadelphia (1971)]. Plasma, inhibited in spontaneous coagulation, e.g. citrate-plasma, is made to coagulate and the required coagulation time is measured. Upon the action of anticoagulants the coagulation time is prolonged proportionally to the inhibition of the reaction(s) in the process. The anticoagulant effect can be characterised by the substance concentration required to prolong the coagulation time twofold compared to the control (IC50). The effect of anticoagulants on individual coagulant proteases is measured by the amidolytic method [R. Lottenberg et al., Methods in Enzymol. 80, 341 (1981); G. Cleason, Blood Coagulation and Fibrinolysis 5, 411 (1994)]. The isolated active factor (e.g. thrombin, fXa) and its chromogen or fluorogen peptide-amide substrate are reacted in the presence or absence of the inhibitor, resp. The enzyme inhibiting action is characterised by the inhibitory constant (IC50) measured during amidolysis.
(§2) In the TT test coagulation is initiated by the thrombin added to the citrate plasma. In the system 22 pmol/ml of thrombin is functioning and its inhibition can be measured on the fibrinogen (one of the natural substrates of thrombin) in the presence of plasma components. In the APTT and PT tests the full coagulation process takes place. Depending on the activator fX is activated either by the extrinsic or the intrinsic pathway. The generated fXa activates prothrombin to thrombin which, in turn, triggers plasma coagulation. The coagulation time is prolonged if the enzymes or one of them is inhibited by the inhibitor. In the APTT and PT tests at most 40 pmol/ml Xa can be generated (this is the full amount of factor X present in both systems) while 150 pmol/ml (APTT) and 350 pmol/ml (PT) of thrombin are generated [B. Kaiser et al., Thromb. Res. 65, 157 (1992)].
(§3) The in vitro anticoagulant effects of the compounds of general formula (I) was measured by the prothrombin time (PT), activated partial thromboplastin time (APTT) and thrombin time (TT) tests [D. Bagdy et al., Thromb. Haemost. 67, 325 (1992)]. The fxa-inhibiting effect of the compounds was also determined using the Bz-Ile-Glu-Gly-Arg-pNA chromogen substrate (see method M6).

isolated human fXa = target: T1, isolated human fXa (Homo sapiens, UniProt P00742); experiment: fXa inhibition in solution, amidolytic method on Bz-Ile-Glu-Gly-Arg-pNA chromogen substrate (Method M6); type: biochemical; conditions: Table 3; isolated human fXa, Bz-Ile-Glu-Gly-Arg-pNA; read-out: B: fXa inhibiting IC50
T1 construct: The isolated active factor (e.g. thrombin, fXa) and its chromogen or fluorogen peptide-amide substrate are reacted; purchased SIGMA
T1 sequence (P00742 235-488 limits assumed): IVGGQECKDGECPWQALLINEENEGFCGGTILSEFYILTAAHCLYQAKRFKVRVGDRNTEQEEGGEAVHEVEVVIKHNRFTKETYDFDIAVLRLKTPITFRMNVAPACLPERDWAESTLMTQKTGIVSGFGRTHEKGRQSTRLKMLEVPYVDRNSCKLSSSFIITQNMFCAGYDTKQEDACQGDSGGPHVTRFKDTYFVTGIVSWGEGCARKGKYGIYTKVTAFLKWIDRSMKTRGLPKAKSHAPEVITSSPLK
T1 sequence (P00742 41-179 partner limits assumed): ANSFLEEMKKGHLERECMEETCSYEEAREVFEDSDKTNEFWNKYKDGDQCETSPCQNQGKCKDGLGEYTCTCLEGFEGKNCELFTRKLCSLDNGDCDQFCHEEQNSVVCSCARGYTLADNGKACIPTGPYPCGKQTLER
Experimental: as §1, §3
Determination of Factor Xa Inhibition in Solution on a 96-well Microtitre Plate
a) By means of phosphate buffer (0.1M sodium phosphate and 0.05M sodium chloride, pH=7.4) 1.3 E/ml solution is prepared from human factor Xa (SIGMA), and 0.1-1.0-10 and 100 μg/ml solutions from the peptide inhibitors. The Bz-Ile-Glu-Gly-Arg-pNA substrate is used in distilled water solution ([…]).
b) From the control and the peptide inhibitor solutions (3 parallel samples of each concentration) 30-30 μl aliquots are placed into the wells. 30 μl of factor Xa, 90 μl of buffer and 150 μl of substrate are added to the peptide solution and the extinction is determined after 10 min. at 405 nm. Thereafter the steps are the same as in M2/c.

clot-bound fXa = target: T2, clot-bound fXa (Homo sapiens, UniProt P00742); experiment: inhibition of plasma clot-bound factor Xa (Methods M1, M2); type: biochemical; conditions: text b187, well below
T2 construct: from tissue; host or cells: clot of recalcified human platelet-rich plasma
T2 sequence (P00742 235-488 limits assumed): as the sequence (P00742 235-488 limits assumed) above
T2 sequence (P00742 41-179 partner limits assumed): as the sequence (P00742 41-179 partner limits assumed) above
Experimental: Plasma-clot was obtained by recalcificating platelet-rich human plasma, and fibrin gel by clotting human fibrinogen with human thrombin. For the activity measures of fXa and thrombin Z-D-Arg-Gly-Arg-pNA or Tos-Gly-Pro-Arg-pNA substrates were used in agreement with Methods M1-M3.
Preparation of Clots from Human Plasma
a) Platelet-rich plasma is prepared by centrifuging a 9:1 mixture of human blood and 3.8% sodium citrate solution for 5 min. at 240×g.
b) 200 μl platelet-rich plasma and 80 μl 40 mM CaCl2 solution are allowed to stand at room temperature for 1 hour. The thus-formed clot is washed with 6×2 ml of 0.9% NaCl solution with gentle stirring to remove the residual enzymes (thrombin and factor Xa). The washing medium is assayed for thrombin-like activity as follows:
c) To 400 μl of washing medium 100 μl of 1 mM Tos-Gly-Pro-Arg-pNA substrate solution is added, the mixture is incubated for 30 min at 37° C., then the reaction is stopped with 100 μl of 50% acetic acid. From this mixture 150 μl aliquots are applied onto a 96-well microtitre plate and the extinction coefficients are measured at 405 nm (ELISA READER SLT Laborinstrument GmbH, Austria). […]
c) From each reaction vessel 150 μl is applied onto a 96 well microtitre plate and extinction coefficients are measured at 405 nm (ELISA READER SLT Laborinstrument GmbH, Austria). […]

citrate plasma [1] = experiment: activated partial thromboplastin time (APTT) plasma clotting test; type: biochemical; conditions: Table 3; twofold prolongation compared to control; read-out: A: anticoagulant IC50, APTT
Experimental: as §1, §2, §3

citrate plasma [2] = experiment: prothrombin time (PT) plasma clotting test; type: biochemical
Experimental: as §1, §2, §3

[3] = tested on: New Zealand white rabbits; experiment: ex vivo TT in citrate plasma of rabbits after p.o. dosing; design: species or system rabbit; conditions: p.o. 5 mg/kg, 90 min
Experimental: (§4) The anticoagulant and platelet aggregation inhibiting effect of the compounds of general formula (I) was studied in New Zealand white rabbits ex vivo according to D. Bagdy et al. [Thromb. Haemost. 67, 357 (1992)]. The compounds were dissolved in buffered isotonic saline solution and administered i.v. (0,04-5.0 mg/kg) or by infusion (0.25-5.0 mg/kg/h) or subcutaneously (0.5-6.0 mg/kg) or p.o. (2.5-20 mg/kg). The effect of the compounds was detectable already within 30 minutes following p.o. administration, peak values were attained after 60-180 minutes and the therapeutic level was maintained dose-dependently for 3→6 hours.
(§5) The in vivo effect of ethoxycarbonyl-3-cyclobutyl-D-alanyl-L-prolyl-L-arginine aldehyde (1) is presented in detail in Tables 6 and 7. The corresponding values of C1 are listed as controls. The compound was administered p.o. in doses of 5 mg/kg. The blood samples drawn from the caudal vein in every 30-60 minutes were analysed. The whole blood clotting time (WBCT) and the inhibition of thrombin-induced blood platelet aggregation (PAI) were determined. The activated partial thromboplastin time (APTT) and the thrombin time (TT) in the citrate plasma obtained from the blood sample were also measured. The APTT and TT values are compiled in Table 6 and the WBCT and PAI values in Table 7.

urokinase (UK) = urokinase (UK) (Homo sapiens, UniProt P00749); experiment: fibrin-plate method, plasmin formation induced by urokinase; type: biochemical; conditions: related to the activity of C1 (1/IC50 = 1)
Excerpt: (§6) The inhibitory effect of the new compounds of the invention on plasmin (PL) as well as on plasmin formation induced by tissue plasminogen activator (tPA) and urokinase (UK) was examined by the fibrin-plate method [D. Bagdy et al.: Thromb. Haemost. 67, 325 (1992)]. Compounds C1 and C5 served as controls. […] V. Jackson et al.: J. Cardiovasc. Pharmacol. 21, 587 (1993))]. In Table 4 the results obtained with the new compounds 1 and 2 as well as those with controls C1 and C5 are presented as an example.

[4] = tested on: thrombin-induced blood platelet aggregation; experiment: ex vivo inhibition of thrombin-induced blood platelet aggregation (PAI) in rabbits after p.o. dosing; design: species or system rabbit; conditions: p.o. 5 mg/kg
Experimental: as §4, §5

plasmin (PL) = plasmin (PL) (Homo sapiens, UniProt P00747); experiment: fibrin-plate method, plasmin; type: biochemical; conditions: related to the activity of C1 (1/IC50 = 1)
Chain of plasmin (PL) (P00747 581-810 limits assumed, species assumed): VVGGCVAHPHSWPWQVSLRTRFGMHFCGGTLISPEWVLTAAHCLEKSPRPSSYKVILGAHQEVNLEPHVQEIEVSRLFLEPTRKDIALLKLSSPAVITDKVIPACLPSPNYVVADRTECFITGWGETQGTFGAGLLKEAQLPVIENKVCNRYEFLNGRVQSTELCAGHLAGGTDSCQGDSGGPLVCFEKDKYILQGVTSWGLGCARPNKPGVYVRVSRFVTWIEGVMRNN
Chain of plasmin (PL) (P00747 97-580 partner limits assumed, species assumed): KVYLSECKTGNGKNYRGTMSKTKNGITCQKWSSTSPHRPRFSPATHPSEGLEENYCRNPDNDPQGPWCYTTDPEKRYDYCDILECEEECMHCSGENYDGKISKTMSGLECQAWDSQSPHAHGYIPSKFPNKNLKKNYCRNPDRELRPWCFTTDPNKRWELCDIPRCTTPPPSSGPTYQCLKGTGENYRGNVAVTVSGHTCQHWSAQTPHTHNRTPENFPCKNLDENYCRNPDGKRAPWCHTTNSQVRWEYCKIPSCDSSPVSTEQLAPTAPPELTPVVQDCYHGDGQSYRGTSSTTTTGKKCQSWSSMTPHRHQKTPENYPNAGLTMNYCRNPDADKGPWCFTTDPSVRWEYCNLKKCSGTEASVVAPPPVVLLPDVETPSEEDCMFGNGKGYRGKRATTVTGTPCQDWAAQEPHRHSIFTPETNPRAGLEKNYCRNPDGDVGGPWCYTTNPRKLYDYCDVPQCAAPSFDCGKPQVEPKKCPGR
Excerpt: as §6

[5] = C. V. Jackson et al. 1993; cited from earlier work
[6] = target: tissue plasminogen activator (tPA) (Homo sapiens, UniProt P00750); experiment: fibrin-plate method, plasmin formation induced by tPA; type: biochemical; conditions: related to the activity of C1 (1/IC50 = 1)
Chain of tissue plasminogen activator (tPA) (P00750 36-562, species assumed): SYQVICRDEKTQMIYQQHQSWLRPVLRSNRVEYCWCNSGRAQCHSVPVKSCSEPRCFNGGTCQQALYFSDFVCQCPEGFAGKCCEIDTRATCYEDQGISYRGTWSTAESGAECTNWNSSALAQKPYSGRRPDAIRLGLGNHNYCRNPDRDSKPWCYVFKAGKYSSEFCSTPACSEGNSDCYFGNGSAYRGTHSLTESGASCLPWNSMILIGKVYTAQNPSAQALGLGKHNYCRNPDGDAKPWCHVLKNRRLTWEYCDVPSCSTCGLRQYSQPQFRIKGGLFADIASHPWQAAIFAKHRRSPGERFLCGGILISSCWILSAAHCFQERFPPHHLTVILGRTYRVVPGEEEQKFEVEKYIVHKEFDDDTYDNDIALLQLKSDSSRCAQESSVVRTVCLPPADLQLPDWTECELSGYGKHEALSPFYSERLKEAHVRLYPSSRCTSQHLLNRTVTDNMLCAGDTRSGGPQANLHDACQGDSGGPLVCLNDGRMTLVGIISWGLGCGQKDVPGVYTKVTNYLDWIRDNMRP
Excerpt: as §6

Structure (SMILES)	IC50 (thrombin) [nM]	IC50 (isolated human fXa) [nM]	IC50 (clot-bound fXa) [nM]	IC50 (citrate plasma [1]) [nM]	IC50 (citrate plasma [2]; Table 3, twofold prolongation compared to control, read-out: A: anticoagulant IC50, PT) [nM]	TT relative clotting time [3]	B: relative efficiency, UK (urokinase (UK))	PAI (%), percentual inhibition of platelet aggregation ([4]; 0 min) [%]	PAI (%), percentual inhibition of platelet aggregation ([4]; 30 min) [%]	PAI (%), percentual inhibition of platelet aggregation ([4]; 45 min) [%]	PAI (%), percentual inhibition of platelet aggregation ([4]; 60 min) [%]	PAI (%), percentual inhibition of platelet aggregation ([4]; 90 min) [%]	PAI (%), percentual inhibition of platelet aggregation ([4]; 120 min) [%]	PAI (%), percentual inhibition of platelet aggregation ([4]; 180 min) [%]	PAI (%), percentual inhibition of platelet aggregation ([4]; 240 min) [%]	B: relative efficiency, PL (plasmin (PL))	antifibrinolytic effect in vivo [5]	B: relative efficiency, tPA [6]	IC50 (citrate plasma [2]; Table 2, concentration prolonging clotting time twofold, read-out: A: anticoagulation IC50, PT) [nM]
CC(C)OC(=O)N[C@H](CC1CCC1)C(=O)N1CCC[C@H]1C(=O)N[C@H](C=O)CCCNC(=N)N [Example 3, Isopropoxycarbonyl-3-cyclobutyl-D-alanyl-L-prolyl-L-arginine aldehyde]	190	36	< 1000	600	1700	–	–	–	–	–	–	–	–	–	–	–	–	–	–
CN[C@H](Cc1ccccc1)C(=O)N1CCC[C@H]1C(=O)N[C@H](C=O)CCCNC(=N)N [Example C1, D-MePhe-Pro-Arg-H, reference compound]	–	–	–	–	–	10.50 ± 4.59	1.0	1.0	52.8 ± 14.7	58.4 ± 15.6	54.2 ± 11.6	83.2 ± 8.9	75.2 ± 12.3	47.5 ± 20.9	32.2 ± 16.0	1.0	insignificant	1.0	2930
